Experiments:
KAI3 (IL-2 2.5 ng/mL) [1] = assay: drug sensitivity score (DSS) (DSS units); higher = more sensitive; extreme values may be limits of the assay; conditions: 72 h
[2] = test system: normal primary NK cells, pool 1 (3 donors), resting (IL-2 0 ng/mL); assay: as above; conditions: 72 h
[3] = test system: normal primary NK cells, pool 1 (3 donors) (IL-2 2.5 ng/mL); assay: as above; conditions: 72 h
[4] = test system: normal primary NK cells, pool 2 (3 donors) (IL-2 2.5 ng/mL); assay: as above; conditions: 72 h
IMC-1 (IL-2 20 ng/mL) [5] = assay: as above; conditions: 72 h
[6] = test system: normal primary NK cells, pool 3 (3 donors) (IL-2 2.5 ng/mL); assay: as above; conditions: 72 h
NK-YS (IL-2 2.5 ng/mL) [7] = assay: as above; conditions: 72 h
YT (IL-2 2.5 ng/mL) [8] = assay: as above; conditions: 72 h
NK-92 (IL-2 2.5 ng/mL) [9] = assay: as above; conditions: 72 h
KHYG-1 (IL-2 2.5 ng/mL) [10] = assay: as above; conditions: 72 h
NKL (IL-2 2.5 ng/mL) [11] = assay: as above; conditions: 72 h
DERL-7 (IL-2 2.5 ng/mL) [12] = assay: as above; conditions: 72 h
SNK-6 (IL-2 2.5 ng/mL) [13] = assay: as above; conditions: 72 h
[14] = test system: normal NK cells expanded with K562-aAPC; assay: as above; conditions: 72 h; IL-2 2.5 ng/mL
Method: (§1)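 Drug sensitivity and resistance testing on K562-aAPC-expanded normal NK cells: 5 concentrations (10-fold steps over a 10,000-fold range), 72 h at 37 °C, viability by CellTiter-Glo normalised to DMSO and benzethonium chloride controls; DSS from the fitted curve.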

KAI3 (IL-2 2.5 ng/mL) [15] = assay: percent inhibition of viability; higher = more inhibition; conditions: 72 h
[16] = test system: normal primary NK cells, pool 1 (3 donors), resting (IL-2 0 ng/mL); assay: as above; conditions: 72 h
[17] = test system: normal primary NK cells, pool 1 (3 donors) (IL-2 2.5 ng/mL); assay: as above; conditions: 72 h
[18] = test system: normal primary NK cells, pool 2 (3 donors) (IL-2 2.5 ng/mL); assay: as above; conditions: 72 h
IMC-1 (IL-2 20 ng/mL) [19] = assay: as above; conditions: 72 h
[20] = test system: normal primary NK cells, pool 3 (3 donors) (IL-2 2.5 ng/mL); assay: as above; conditions: 72 h
NK-YS (IL-2 2.5 ng/mL) [21] = assay: as above; conditions: 72 h
YT (IL-2 2.5 ng/mL) [22] = assay: as above; conditions: 72 h
NK-92 (IL-2 2.5 ng/mL) [23] = assay: as above; conditions: 72 h
KHYG-1 (IL-2 2.5 ng/mL) [24] = assay: as above; conditions: 72 h
NKL (IL-2 2.5 ng/mL) [25] = assay: as above; conditions: 72 h
DERL-7 (IL-2 2.5 ng/mL) [26] = assay: as above; conditions: 72 h
SNK-6 (IL-2 2.5 ng/mL) [27] = assay: as above; conditions: 72 h
[28] = test system: normal NK cells expanded with K562-aAPC; assay: as above; conditions: 72 h, IL-2 2.5 ng/mL
Method: as §1

COc1cc2c(Oc3ccc4[nH]c(C)cc4c3F)ncnc2cc1OCCCN1CCCC1 [Cediranib] (max concentration tested 1000 nM)
Conditions | drug sensitivity score
DERL-7 (IL-2 2.5 ng/mL) [12] | 0
IMC-1 (IL-2 20 ng/mL) [5] | 1.2
KAI3 (IL-2 2.5 ng/mL) [1] | 0
KHYG-1 (IL-2 2.5 ng/mL) [10] | 0
NK-92 (IL-2 2.5 ng/mL) [9] | 1.88
NK-YS (IL-2 2.5 ng/mL) [7] | 0
NKL (IL-2 2.5 ng/mL) [11] | 0
SNK-6 (IL-2 2.5 ng/mL) [13] | 0
YT (IL-2 2.5 ng/mL) [8] | 0
[2] | 0
[3] | 0
[4] | 0
[6] | 0
[14] | 0.03

percent inhibition of viability [%]
Conditions | 0.1 nM | 1 nM | 10 nM | 100 nM | 1000 nM
DERL-7 (IL-2 2.5 ng/mL) [26] | 0.36 | 1.65 | 5.2 | 3.45 | 7.76
IMC-1 (IL-2 20 ng/mL) [19] | -5.84 | 1.16 | -0.8 | 8.28 | 17.6
KAI3 (IL-2 2.5 ng/mL) [15] | 4.2 | -2.39 | -4.78 | -7.3 | 2.49
KHYG-1 (IL-2 2.5 ng/mL) [24] | 4.26 | 1.2 | 0.25 | 3.56 | 5.7
NK-92 (IL-2 2.5 ng/mL) [23] | -10.6 | 3.93 | 7.82 | 10.5 | 25.9
NK-YS (IL-2 2.5 ng/mL) [21] | -2.57 | -1.64 | -1.64 | -2.9 | 4.62
NKL (IL-2 2.5 ng/mL) [25] | -22.1 | -12.6 | -8.18 | 4.3 | -2.96
SNK-6 (IL-2 2.5 ng/mL) [27] | -0.01 | -5.98 | -7.81 | 1.67 | -2.98
YT (IL-2 2.5 ng/mL) [22] | -2.86 | -1.1 | -1.25 | -2.55 | 7.27
[16] | 4.39 | -7.82 | 2.26 | -0.33 | 6.25
[17] | 4.11 | -11.2 | -8.24 | -9.08 | -10.8
[18] | -4.71 | 1.73 | 4.28 | -4.99 | 7
[20] | -13.7 | -14.2 | -5.69 | -12.7 | -3.19
[28] | -3.67 | -0.35 | -1.67 | 10.2 | 9.48

C=CC(=O)N1CCC[C@@H](n2nc(-c3ccc(Oc4ccccc4)cc3)c3c(N)ncnc32)C1 [Ibrutinib] (max concentration tested 1000 nM)
Conditions | drug sensitivity score
DERL-7 (IL-2 2.5 ng/mL) [12] | 2.68
IMC-1 (IL-2 20 ng/mL) [5] | 0
KAI3 (IL-2 2.5 ng/mL) [1] | 1.54
KHYG-1 (IL-2 2.5 ng/mL) [10] | 0
NK-92 (IL-2 2.5 ng/mL) [9] | 0.3
NK-YS (IL-2 2.5 ng/mL) [7] | 0.35
NKL (IL-2 2.5 ng/mL) [11] | 4.8
SNK-6 (IL-2 2.5 ng/mL) [13] | 0
YT (IL-2 2.5 ng/mL) [8] | 3.17
[2] | 2.74
[3] | 2.44
[4] | 0
[6] | 0
[14] | 0

percent inhibition of viability [%]
Conditions | 0.1 nM | 1 nM | 10 nM | 100 nM | 1000 nM
DERL-7 (IL-2 2.5 ng/mL) [26] | 2.78 | 2.44 | 6.17 | 7.83 | 34.1
IMC-1 (IL-2 20 ng/mL) [19] | -4.48 | -0.1 | -1.11 | -2.87 | -8.75
KAI3 (IL-2 2.5 ng/mL) [15] | 1.69 | 2.89 | 0.25 | 8.29 | 20.5
KHYG-1 (IL-2 2.5 ng/mL) [24] | -6.77 | -1.35 | -1.82 | 0.67 | 8.69
NK-92 (IL-2 2.5 ng/mL) [23] | -15.8 | -16.1 | -8.18 | 0.25 | 15.7
NK-YS (IL-2 2.5 ng/mL) [21] | -1.09 | -1.95 | -0.26 | 0.88 | 15.6
NKL (IL-2 2.5 ng/mL) [25] | -5.52 | 0.29 | 10.1 | 24.2 | 30
SNK-6 (IL-2 2.5 ng/mL) [27] | -11.4 | 9.91 | -7.4 | 1.24 | 8.78
YT (IL-2 2.5 ng/mL) [22] | -2.79 | -1.68 | -0.35 | 13.8 | 31.3
[16] | -3.67 | 8.12 | 16.8 | 10 | 22.4
[17] | -0.62 | 9.62 | 12.7 | 12.1 | 21
[18] | -6.12 | 0.44 | 7.05 | -9.76 | 10.5
[20] | -5.07 | 4.6 | -2.73 | -10.7 | -14
[28] | -2.6 | -5.62 | -10 | -0.99 | -0.93

Source: the supplement of paper PMC5908809
